Like-named read-outs stand apart in the source and are kept apart here.
Tested on: recombinant NL-Rluc virus
Assay: Inhibition of HIV replication (NL-RLuc luciferase reporter virus in MT-2 cells)
Format: cell-based
[1] = Human immunodeficiency virus 1, MT2, 120 h, read-out: EC50 μM
[2] = read-out: Activity, MT-2 cells infected with NL-RLuc virus, 5 days of incubation, luciferase readout, serum condition not given
[3] = Human immunodeficiency virus 1, MT2, 120 h, read-out: Activity

Compound | EC50 [1] | EC50 [2] | EC50 [3]
Cc1nc2cc(-c3cccc(-c4ccccc4)c3)nn2c(N2CCC3(C)CC3C2)c1[C@H](OC(C)(C)C)C(=O)O (stereo partly drawn) [Example 62, (2S)-2-(2-([1,1′-Biphenyl]-3-yl)-5-methyl-7-(6-methyl-3-azabicyclo[4.1.0]heptan-3-yl)pyrazolo[1,5-a]pyrimidin-6-yl)-2-(tert-butoxy)acetic acid] | 0.42 µM | 0.1 to 1 µM | 
Cc1nc2cc(-c3cccc(-c4ccccc4F)c3)nn2c(N2CCC3(C)CC3C2)c1[C@H](OC(C)(C)C)C(=O)O (stereo partly drawn) [Example 63, (2S)-2-(tert-Butoxy)-2-(2-(2′-fluoro-[1,1′-biphenyl]-3-yl)-5-methyl-7-(6-methyl-3-azabicyclo[4.1.0]heptan-3-yl)pyrazolo[1,5-a]pyrimidin-6-yl)acetic acid] |  |  | 0.1 to 1 µM
Cc1nc2cc(-c3cccc(-c4ccccc4F)c3)nn2c(N2CCC3(C)CC3C2)c1[C@H](OC(C)(C)C)C(=O)O (stereo partly drawn) [Example 64, (2S)-2-(tert-Butoxy)-2-(2-(2′-fluoro-[1,1′-biphenyl]-3-yl)-5-methyl-7-(6-methyl-3-azabicyclo[4.1.0]heptan-3-yl)pyrazolo[1,5-a]pyrimidin-6-yl)acetic acid] |  | 0.1 to 1 µM | 
Cc1nc2cc(-c3cc(-c4ccccc4)ccn3)nn2c(N2CCC(C)(C)CC2)c1[C@H](OC(C)(C)C)C(=O)O [Example 65, (S)-2-(tert-Butoxy)-2-(7-(4,4-dimethylpiperidin-1-yl)-5-methyl-2-(4-phenylpyridin-2-yl)pyrazolo[1,5-a]pyrimidin-6-yl)acetic acid] |  |  | 0.1 to 1 µM
Cc1nc2cc(-c3cccc(Oc4ccccc4)c3)nn2c(N2CCC(C)(C)CC2)c1[C@H](OC(C)(C)C)C(=O)O [Example 66, (S)-2-(tert-Butoxy)-2-(7-(4,4-dimethylpiperidin-1-yl)-5-methyl-2-(3-phenoxyphenyl)pyrazolo[1,5-a]pyrimidin-6-yl)acetic acid] |  |  | 0.1 to 1 µM
Cc1nc2cc(-c3cccc(-c4ccccc4)n3)nn2c(N2CCC(C)(C)CC2)c1[C@H](OC(C)(C)C)C(=O)O [Example 67, (S)-2-(tert-Butoxy)-2-(7-(4,4-dimethylpiperidin-1-yl)-5-methyl-2-(6-phenylpyridin-2-yl)pyrazolo[1,5-a]pyrimidin-6-yl)acetic acid] |  |  | 0.1 to 1 µM
Cc1nc2cc(-c3cccc(Oc4ccccc4)n3)nn2c(N2CCC(C)(C)CC2)c1[C@H](OC(C)(C)C)C(=O)O [Example 68, (S)-2-(tert-Butoxy)-2-(7-(4,4-dimethylpiperidin-1-yl)-5-methyl-2-(6-phenoxypyridin-2-yl)pyrazolo[1,5-a]pyrimidin-6-yl)acetic acid] |  |  | 0.1 to 1 µM
Cc1nc2cc(-c3cccc(OCc4ccccc4)n3)nn2c(N2CCC(C)(C)CC2)c1[C@H](OC(C)(C)C)C(=O)O [Example 69, (S)-2-(2-(6-(Benzyloxy)pyridin-2-yl)-7-(4,4-dimethylpiperidin-1-yl)-5-methylpyrazolo[1,5-a]pyrimidin-6-yl)-2-(tert-butoxy)acetic acid] | 0.19 µM |  | 0.1 to 1 µM
Cc1nc2cc(-c3cccc(Cc4ccccc4)n3)nn2c(N2CCC(C)(C)CC2)c1[C@H](OC(C)(C)C)C(=O)O [Example 70, (S)-2-(2-(6-Benzylpyridin-2-yl)-7-(4,4-dimethylpiperidin-1-yl)-5-methylpyrazolo[1,5-a]pyrimidin-6-yl)-2-(tert-butoxy)acetic acid] |  |  | 0.1 to 1 µM
